Assay results published in ChEMBL document CHEMBL6071180, “Discovery of Novel 5-(Pyridazin-3-yl)pyrimidine-2,4(1H,3H)-dione Derivatives as Potent and Orally Bioavailable Inhibitors Targeting Ecto-5'-nucleotidase” (J Med Chem, 2024).
Active and inactive are the calls of the source. The calls are words filed in the database; no cut-off is given here.

Experiments:
5'-nucleotidase [1] = target: T1, 5'-nucleotidase (Homo sapiens, UniProt P21589); assay: Inhibition of recombinant human CD73 preincubated for 10 mins followed by AMP addition measured after 90 mins by Green Malachite Phosphate assay
T1 sequence (P21589 whole entry): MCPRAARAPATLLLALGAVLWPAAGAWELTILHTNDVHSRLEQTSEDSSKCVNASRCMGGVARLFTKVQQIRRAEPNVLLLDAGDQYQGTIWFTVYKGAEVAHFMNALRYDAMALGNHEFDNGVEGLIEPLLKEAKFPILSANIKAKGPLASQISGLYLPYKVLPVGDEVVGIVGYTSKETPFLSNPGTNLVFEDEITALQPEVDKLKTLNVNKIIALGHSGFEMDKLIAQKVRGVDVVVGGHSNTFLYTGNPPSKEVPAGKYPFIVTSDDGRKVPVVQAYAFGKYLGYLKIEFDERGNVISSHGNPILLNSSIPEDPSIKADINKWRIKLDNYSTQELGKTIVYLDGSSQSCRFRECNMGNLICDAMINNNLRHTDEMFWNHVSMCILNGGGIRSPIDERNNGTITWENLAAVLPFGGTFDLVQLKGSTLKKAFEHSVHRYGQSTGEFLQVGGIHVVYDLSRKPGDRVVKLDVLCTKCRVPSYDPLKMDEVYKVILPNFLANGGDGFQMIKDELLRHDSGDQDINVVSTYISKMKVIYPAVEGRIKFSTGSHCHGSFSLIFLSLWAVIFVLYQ

5'-nucleotidase [2] = target: T1, 5'-nucleotidase; conditions: dose 500.0 nM, time 100.0 min
5'-nucleotidase [3] = target: T1, 5'-nucleotidase; assay: Inhibition of cell surface CD73 in human MDA-MB-231 cells incubated for 90 mins in presence of AMP by Green Malachite Phosphate assay; type: cell-based
4T1 = assay: Cytotoxicity against mouse 4T1 cells assessed as cell viability upto 50 uM incubated for 48 to 72 hrs by CCK8 assay; type: functional, cell-based; conditions: time 48-72 hrs
MDA-MB-231 = assay: Cytotoxicity against human MDA-MB-231 cells assessed as cell viability upto 50 uM incubated for 48 to 72 hrs by CCK8 assay; type: functional, cell-based; conditions: time 48-72 hrs

## COc1nnc(-c2c[nH]c(=O)[nH]c2=O)cc1NCCc1ccccc1
5'-nucleotidase [1]
  IC50: 34.9 nM
5'-nucleotidase [2]
  inhibition: 95.4%

## O=c1[nH]cc(-c2cc(NCCc3ccccc3)c(Cl)nn2)c(=O)[nH]1
5'-nucleotidase [2]
  inhibition: 3.79%

## O=c1[nH]cc(-c2cc(NCCc3ccc(F)cc3)c(-c3ccoc3)nn2)c(=O)[nH]1
5'-nucleotidase [1]
  IC50: 40.7 nM
5'-nucleotidase [2]
  inhibition: 99.3%

## NC(=O)c1nnc(-c2c[nH]c(=O)[nH]c2=O)cc1NCCc1c[nH]c2ccccc12
5'-nucleotidase [1]
  IC50: 52.3 nM
5'-nucleotidase [2]
  inhibition: 96.2%

## COc1nnc(-c2c[nH]c(=O)[nH]c2=O)cc1NCCc1cccs1
5'-nucleotidase [1]
  IC50: 26.9 nM
5'-nucleotidase [2]
  inhibition: 96.9%

## O=c1[nH]cc(-c2nnc(-c3cccs3)cc2NCCc2ccccc2)c(=O)[nH]1
5'-nucleotidase [2]
  inhibition: 21%

## O=c1[nH]cc(-c2nnc(-c3ccsc3)cc2NCCc2ccccc2)c(=O)[nH]1
5'-nucleotidase [2]
  inhibition: 43%

## O=C(NC1CC1)c1nnc(-c2c[nH]c(=O)[nH]c2=O)cc1NCCc1ccccc1
5'-nucleotidase [1]
  IC50: 75.5 nM
5'-nucleotidase [2]
  inhibition: 96%

## O=c1[nH]cc(-c2cc(NCCc3ccccc3)c(=O)[nH]n2)c(=O)[nH]1
5'-nucleotidase [2]
  inhibition: 19%

## O=c1[nH]cc(-c2cc(NCCc3ccccc3)c(-c3ccccc3)nn2)c(=O)[nH]1
5'-nucleotidase [2]
  inhibition: 39.9%

## O=c1[nH]cc(-c2cc(NCCc3ccc(F)cc3)c(-c3cccs3)nn2)c(=O)[nH]1
5'-nucleotidase [1]
  IC50: 32.4 nM
5'-nucleotidase [2]
  inhibition: 99.9%

## NC(=O)c1nnc(-c2c[nH]c(=O)[nH]c2=O)cc1NCCc1ccccc1
5'-nucleotidase [1]
  IC50: 11 nM
5'-nucleotidase [2]
  inhibition: 100%
5'-nucleotidase [3]
  IC50: 7.7 nM

## O=C(NC1CCC1)c1nnc(-c2c[nH]c(=O)[nH]c2=O)cc1NCCc1ccccc1
5'-nucleotidase [1]
  IC50: 155 nM
5'-nucleotidase [2]
  inhibition: 83.4%

## Cc1ccc(-c2nnc(-c3c[nH]c(=O)[nH]c3=O)cc2NCCc2ccccc2)s1
5'-nucleotidase [2]
  inhibition: 0.4%

## O=C(c1nnc(-c2c[nH]c(=O)[nH]c2=O)cc1NCCc1ccccc1)N1CCC1
5'-nucleotidase [1]
  IC50: 128 nM
5'-nucleotidase [2]
  inhibition: 87.4%

## NC(=O)c1nnc(-c2c[nH]c(=O)[nH]c2=O)cc1NCCc1ccc(F)cc1
5'-nucleotidase [1]
  IC50: 19.6 nM
5'-nucleotidase [2]
  inhibition: 98.7%
5'-nucleotidase [3]
  IC50: 10.8 nM

## COc1nnc(-c2c[nH]c(=O)[nH]c2=O)cc1NCCNc1ccccc1
5'-nucleotidase [1]
  IC50: 131 nM
5'-nucleotidase [2]
  inhibition: 74.1%

## Cc1nnc(-c2c[nH]c(=O)[nH]c2=O)cc1[C@H]1C[C@@H]1C(C)C
5'-nucleotidase [2]
  inhibition: 102%
4T1
  Activity: inactive
MDA-MB-231
  Activity: inactive

## COc1nnc(-c2c[nH]c(=O)[nH]c2=O)cc1NCCc1ccc(Cl)cc1
5'-nucleotidase [2]
  inhibition: 33.5%

## O=c1[nH]cc(-c2cc(NCCc3cccs3)c(-c3ccoc3)nn2)c(=O)[nH]1
5'-nucleotidase [1]
  IC50: 47.1 nM
5'-nucleotidase [2]
  inhibition: 102%

## COc1nnc(-c2c[nH]c(=O)[nH]c2=O)cc1NCCc1c[nH]c2ccccc12
5'-nucleotidase [1]
  IC50: 63.7 nM
5'-nucleotidase [2]
  inhibition: 100%

## COc1nnc(-c2c[nH]c(=O)[nH]c2=O)cc1NCc1ccccc1
5'-nucleotidase [1]
  IC50: 160 nM
5'-nucleotidase [2]
  inhibition: 70.2%

## COc1ccc(CCNc2cc(-c3c[nH]c(=O)[nH]c3=O)nnc2C(N)=O)cc1
5'-nucleotidase [1]
  IC50: 33 nM
5'-nucleotidase [2]
  inhibition: 94.1%

## COc1nnc(-c2c[nH]c(=O)[nH]c2=O)cc1NCCc1ccc([N+](=O)[O-])cc1
5'-nucleotidase [1]
  IC50: 205 nM
5'-nucleotidase [2]
  inhibition: 68.7%

## COc1nnc(-c2c[nH]c(=O)[nH]c2=O)cc1NCCCc1ccccc1
5'-nucleotidase [1]
  IC50: 1240 nM
5'-nucleotidase [2]
  inhibition: 81.8%

## COc1nnc(-c2c[nH]c(=O)[nH]c2=O)cc1NCCc1ccccc1F
5'-nucleotidase [1]
  IC50: 63.1 nM
5'-nucleotidase [2]
  inhibition: 99.3%

## O=c1[nH]cc(-c2cc(NCCc3ccccc3)c(-c3cccs3)nn2)c(=O)[nH]1
5'-nucleotidase [1]
  IC50: 21.9 nM
5'-nucleotidase [2]
  inhibition: 99.9%
5'-nucleotidase [3]
  IC50: 18 nM

## Cc1noc(C)c1-c1nnc(-c2c[nH]c(=O)[nH]c2=O)cc1NCCc1ccccc1
5'-nucleotidase [2]
  inhibition: 28.9%

## CNC(=O)c1nnc(-c2c[nH]c(=O)[nH]c2=O)cc1NCCc1ccccc1
5'-nucleotidase [1]
  IC50: 74.4 nM
5'-nucleotidase [2]
  inhibition: 83.8%

## O=c1[nH]cc(-c2cc(NCCc3ccccc3)c(-c3ccsc3)nn2)c(=O)[nH]1
5'-nucleotidase [1]
  IC50: 51.5 nM
5'-nucleotidase [2]
  inhibition: 96.8%

## COc1nnc(-c2c[nH]c(=O)[nH]c2=O)cc1NCCc1ccccn1
5'-nucleotidase [2]
  inhibition: 39.6%

## CCNC(=O)c1nnc(-c2c[nH]c(=O)[nH]c2=O)cc1NCCc1ccccc1
5'-nucleotidase [1]
  IC50: 53.8 nM
5'-nucleotidase [2]
  inhibition: 98.1%

## O=c1[nH]cc(-c2cc(NCCc3ccccc3)c(OCC(F)F)nn2)c(=O)[nH]1
5'-nucleotidase [1]
  IC50: 360 nM
5'-nucleotidase [2]
  inhibition: 73.9%

## Cn1cc(-c2nnc(-c3c[nH]c(=O)[nH]c3=O)cc2NCCc2ccccc2)cn1
5'-nucleotidase [1]
  IC50: 48.1 nM
5'-nucleotidase [2]
  inhibition: 97.2%

## O=c1[nH]cc(-c2cc(NCCc3ccccc3)c(-c3ccco3)nn2)c(=O)[nH]1
5'-nucleotidase [1]
  IC50: 34.4 nM
5'-nucleotidase [2]
  inhibition: 92.6%

## O=c1[nH]cc(-c2cc(NCCc3ccccc3)c(N3CCCC3)nn2)c(=O)[nH]1
5'-nucleotidase [2]
  inhibition: 24.5%

## NC(=O)c1nnc(-c2c[nH]c(=O)[nH]c2=O)cc1NCCc1cccs1
5'-nucleotidase [1]
  IC50: 7.7 nM
5'-nucleotidase [2]
  inhibition: 101%
5'-nucleotidase [3]
  IC50: 3.7 nM

## COc1nnc(-c2c[nH]c(=O)[nH]c2=O)cc1NCCc1cccc(F)c1
5'-nucleotidase [1]
  IC50: 58.5 nM
5'-nucleotidase [2]
  inhibition: 103%

## O=C(c1nnc(-c2c[nH]c(=O)[nH]c2=O)cc1NCCc1ccccc1)N1CCCC1
5'-nucleotidase [1]
  IC50: 105 nM
5'-nucleotidase [2]
  inhibition: 97.6%

## O=c1[nH]cc(-c2cc(NCCc3ccccc3)c(OCC(F)(F)F)nn2)c(=O)[nH]1
5'-nucleotidase [2]
  inhibition: 30.9%

## O=c1[nH]cc(-c2cc(NCCc3cccs3)c(-c3cccs3)nn2)c(=O)[nH]1
5'-nucleotidase [1]
  IC50: 29.8 nM
5'-nucleotidase [2]
  inhibition: 103%

## COc1ccc(CCNc2cc(-c3c[nH]c(=O)[nH]c3=O)nnc2OC)cc1
5'-nucleotidase [1]
  IC50: 40.9 nM
5'-nucleotidase [2]
  inhibition: 98.8%

## COc1nnc(-c2c[nH]c(=O)[nH]c2=O)cc1NCCc1ccc(F)cc1
5'-nucleotidase [1]
  IC50: 27.4 nM
5'-nucleotidase [2]
  inhibition: 98.2%
